This experiment addresses T1, hTRPV3 (Homo sapiens, UniProt Q8NET8).
T1 construct: The commercially available plasmid with the full-length cDNA of hTRPV3 (791 aa) (NM_001258205.2); host or cells: HEK293T
T1 sequence (Q8NET8 1-791 isoform Q8NET8-2): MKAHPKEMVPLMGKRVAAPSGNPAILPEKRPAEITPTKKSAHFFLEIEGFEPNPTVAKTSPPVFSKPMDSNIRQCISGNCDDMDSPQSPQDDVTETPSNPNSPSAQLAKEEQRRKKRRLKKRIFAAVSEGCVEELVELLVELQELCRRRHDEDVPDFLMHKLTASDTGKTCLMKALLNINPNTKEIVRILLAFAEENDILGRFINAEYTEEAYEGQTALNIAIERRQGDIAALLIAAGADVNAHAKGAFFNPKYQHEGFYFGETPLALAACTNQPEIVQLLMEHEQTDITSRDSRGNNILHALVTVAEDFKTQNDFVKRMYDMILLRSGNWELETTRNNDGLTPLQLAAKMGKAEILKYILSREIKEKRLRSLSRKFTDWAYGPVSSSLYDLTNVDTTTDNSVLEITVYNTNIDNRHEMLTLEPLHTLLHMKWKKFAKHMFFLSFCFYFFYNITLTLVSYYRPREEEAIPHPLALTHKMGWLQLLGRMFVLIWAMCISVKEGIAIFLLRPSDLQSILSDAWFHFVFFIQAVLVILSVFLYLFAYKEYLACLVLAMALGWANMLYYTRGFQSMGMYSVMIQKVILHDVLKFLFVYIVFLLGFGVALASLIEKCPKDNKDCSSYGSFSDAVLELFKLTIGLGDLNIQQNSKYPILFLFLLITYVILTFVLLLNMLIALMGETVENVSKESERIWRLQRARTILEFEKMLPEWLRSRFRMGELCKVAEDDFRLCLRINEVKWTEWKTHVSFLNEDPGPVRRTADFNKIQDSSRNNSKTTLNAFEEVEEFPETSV
Briefly: Whole-cell patch-clamp recording of hTRPV3 current in transfected HEK293T cells (2-APB induced). It is filed as cell-based. To be noted: current induced by 300 μM 2-APB, compounds tested up to 10 μM, room temperature. The gist of the method: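 HEK293T cells transiently expressing full-length hTRPV3, recorded by whole-cell patch clamp 18 h post-transfection at room temperature, with 130 mM NaCl/0.3 mM EDTA/3 mM HEPES pH 7.4 on both sides. Holding potential 0 mV; 400-ms steps to +80 and −80 mV every 2 s. Block of 2-APB-evoked current, tested up to 10 μM, fitted to Hill equation for IC50.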

Molecules are shown by their SMILES.

Consider `COc1ncnc(OC)c1C(=O)Nc1nc2c(s1)C1(CN(C(C)C)C1)Oc1cc(C(F)(F)F)ccc1-2` [compound 136, N-(1-isopropyl-7′-(trifluoromethyl)spiro[azetidine-3,4′-chromeno[4,3-d]thiazol]-2′-yl)-4,6-dimethoxypyrimidine-5-carboxamide], for which the IC50 is < 100 nM.

For the compound `COc1ncnc(OC)c1C(=O)Nc1nc2c(s1)C1(COC1)Oc1cc(C#N)ccc1-2` [compound 137, N-(7-cyanospiro[chromeno[4,3-d]thiazole-4,3′-oxetan]-2-yl)-4,6-dimethoxypyrimidine-5-carboxamide], the IC50 was ≥ 10000 nM. `COc1ncnc(OC)c1C(=O)Nc1nc2c(s1)C1(COC1)Oc1cc(C3CC3)ccc1-2` [compound 138, N-(7-cyclopropylspiro[chromeno[4,3-d]thiazole-4,3′-oxetan]-2-yl)-4,6-dimethoxypyrimidine-5-carboxamide] had an IC50 of 100 to 1000 nM. On to `COc1ncnc(OC)c1C(=O)Nc1nc2c(s1)C1(COC1)Oc1cc(C(C)(C)O)ccc1-2` [compound 139, N-(7-(2-hydroxypropan-2-yl)spiro[chromeno[4,3-d]thiazole-4,3′-oxetan]-2-yl)-4,6-dimethoxypyrimidine-5-carboxamide], for which the half-maximal inhibitory concentration (IC50) is ≥ 10000 nM. The figure for `COc1ncnc(OC)c1C(=O)Nc1nc2c(s1)C1(COC1)Oc1cc(C(C)(C)C#N)ccc1-2` [compound 140, N-(7-(2-cyanopropan-2-yl)spiro[chromeno[4,3-d]thiazole-4,3′-oxetan]-2-yl)-4,6-dimethoxypyrimidine-5-carboxamide] is 1000 to 10000 nM; for `COc1ncnc(OC)c1C(=O)Nc1nc2c(s1)-c1ccc(C(F)(F)F)cc1OC21CCS(=O)(=O)CC1` [compound 141, N-(1′,1′-dioxido-7-(trifluoromethyl)-2′,3′,5′,6′-tetrahydrospiro[chromeno[3,4-d]thiazole-4,4′-thiopyran]-2-yl)-4,6-dimethoxypyrimidine-5-carboxamide] it is 1000 to 10000 nM. To `CCC1(CC)Oc2cc(C(F)(F)F)ccc2-c2nc(NC(=O)c3c(OC)cccc3OC)sc21` [compound 142, N-(4,4-diethyl-7-(trifluoromethyl)-4H-chromeno[4,3-d]thiazol-2-yl)-2,6-dimethoxybenzamide] belongs ≥ 10000 nM. As for `CCC1(CC)Oc2cc(C(F)(F)F)ccc2-c2nc(N3CN(C)c4ncnc(OC)c4C3=O)sc21` [compound 143, 3-(4,4-diethyl-7-(trifluoromethyl)-4H-chromeno[4,3-d]thiazol-2-yl)-5-methoxy-1-methyl-2,3-dihydropyrimido[4,5-d]pyrimidin-4 (1H)-one], the concentration for half-maximal inhibition (IC50) was ≥ 10000 nM.

For the compound `COc1ncnc(O)c1C(=O)Nc1nc2c(s1)C1(COC1)Oc1cc(C(C)C)ccc1-2` [compound 144, 4-hydroxy-N-(7-isopropylspiro[chromeno[4,3-d]thiazole-4,3′-oxetan]-2-yl)-6-methoxypyrimidine-5-carboxamide], the 50% inhibitory concentration (IC50) was ≥ 10000 nM.

`COc1ncnc(OC)c1C(=O)Nc1nc2c(s1)C1(CN(C(C)C)C1)Oc1cc(C(C)C)ccc1-2` [compound 145, N-(1,7′-diisopropylspiro[azetidine-3,4′-chromeno[4,3-d]thiazol]-2′-yl)-4,6-dimethoxypyrimidine-5-carboxamide] yielded a 50% inhibitory concentration (IC50) of 100 to 1000 nM.

`COc1ncnc(OC)c1C(=O)Nc1nc2c(s1)C1(CN(C(C)C)C1)Oc1cc(Br)ccc1-2` [compound 146, N-(7′-bromo-1-isopropylspiro[azetidine-3,4′-chromeno[4,3-d]thiazol]-2′-yl)-4,6-dimethoxypyrimidine-5-carboxamide]: the IC50 was < 100 nM.

As to `COc1ncnc(OCCN(C)C)c1C(=O)Nc1nc2c(s1)C1(COC1)Oc1cc(C(C)C)ccc1-2` [compound 147, 4-(2-(dimethylamino)ethoxy)-N-(7-isopropylspiro[chromeno[4,3-d]thiazole-4,3′-oxetan]-2-yl)-6-methoxypyrimidine-5-carboxamide], the IC50 lay in the range of 1000 to 10000 nM.

On to `COc1ncnc(OC)c1C(=O)Nc1nc2c(s1)C1(CN(C(C)C)C1)Oc1cc(C#N)ccc1-2` [compound 148, N-(7′-cyano-1-isopropylspiro[azetidine-3,4′-chromeno[4,3-d]thiazol]-2′-yl)-4,6-dimethoxypyrimidine-5-carboxamide], for which the half-maximal inhibitory concentration (IC50) is 100 to 1000 nM. In the case of `COc1ncnc(OC)c1C(=O)Nc1nc2c(s1)C1(CN(C3CC3)C1)Oc1cc(C(F)(F)F)ccc1-2` [compound 149, N-(1-cyclopropyl-7′-(trifluoromethyl)spiro[azetidine-3,4′-chromeno[4,3-d]thiazol]-2′-yl)-4,6-dimethoxypyrimidine-5-carboxamide], the IC50 is < 100 nM. With `COc1ncnc(OC)c1C(=O)Nc1nc2c(s1)C1(CN(CC(C)C)C1)Oc1cc(C(F)(F)F)ccc1-2` [compound 150, N-(1-isobutyl-7′-(trifluoromethyl)spiro[azetidine-3,4′-chromeno[4,3-d]thiazol]-2′-yl)-4,6-dimethoxypyrimidine-5-carboxamide], the IC50 is < 100 nM.

For the compound `COc1ncnc(OCCN(C)C)c1C(=O)Nc1nc2c(s1)C1(COC1)Oc1cc(C(F)(F)F)ccc1-2` [compound 151, 4-(2-(dimethylamino)ethoxy)-6-methoxy-N-(7-(trifluoromethyl)spiro[chromeno[4,3-d]thiazole-4,3′-oxetan]-2-yl)pyrimidine-5-carboxamide], the IC50 lay in the range of 1000 to 10000 nM. `COc1ncnc(OC)c1C(=O)Nc1nc2c(s1)C1(CCN(C(C)C)CC1)Oc1cc(C(F)(F)F)ccc1-2` [compound 152, N-(1′-isopropyl-7-(trifluoromethyl)spiro[chromeno[4,3-d]thiazole-4,4′-piperidin]-2-yl)-4,6-dimethoxypyrimidine-5-carboxamide] showed a concentration for half-maximal inhibition (IC50) of 100 to 1000 nM. The figure for `COc1ncnc(OC)c1C(=O)Nc1nc2c(s1)C1(CN(C3(OC)CC3)C1)Oc1cc(C(F)(F)F)ccc1-2` [compound 153, 4,6-dimethoxy-N-(1-(1-methoxycyclopropyl)-7′-(trifluoromethyl)spiro[azetidine-3,4′-chromeno[4,3-d]thiazol]-2′-yl)pyrimidine-5-carboxamide] is < 100 nM.

The compound `COc1ncnc(OC)c1C(=O)Nc1nc2c(s1)C1(CCN(C3CC3)CC1)Oc1cc(C(F)(F)F)ccc1-2` [compound 154] yielded a half-maximal inhibitory concentration (IC50) of 100 to 1000 nM. To `COc1ncnc(OC)c1C(=O)Nc1nc2c(s1)C1(CCN(CC(C)C)CC1)Oc1cc(C(F)(F)F)ccc1-2` [compound 155, N-(1′-isobutyl-7-(trifluoromethyl)spiro[chromeno[4,3-d]thiazole-4,4′-piperidin]-2-yl)-4,6-dimethoxypyrimidine-5-carboxamide] belongs < 100 nM; to `COc1ncnc(OC)c1C(=O)Nc1nc2c(s1)C1(CN(C(=O)OC(C)(C)C)C1)Oc1cnccc1-2` [compound 156, tert-butyl 2′-(4,6-dimethoxypyrimidine-5-carboxamido)spiro[azetidine-3,4′-thiazolo[4′,5′: 4,5]pyrano[2,3-c]pyridine]-1-carboxylate], 1000 to 10000 nM; to `COCCN1CC2(C1)Oc1cc(C(F)(F)F)ccc1-c1nc(NC(=O)c3c(OC)ncnc3OC)sc12` [compound 157, 4,6-dimethoxy-N-(1-(2-methoxyethyl)-7′-(trifluoromethyl)spiro[azetidine-3,4′-chromeno[4,3-d]thiazol]-2′-yl)pyrimidine-5-carboxamide], < 100 nM.

These data come from patent US20260217697A1, “COMPOUNDS COMPRISING HETEROARYL RINGS AND COMPOSITIONS AND METHODS THEREOF” (lonGen Therapeutics Co., Ltd., priority 2022, published 2026).
